# Measurements published in US10513723B2 (AMGEN INC., priority 2014, dated 2019).
# Legend:
# [1] = test system: Cell line I (expresses an IgG2 antibody); assay: Fed-batch 2 L bioreactor culture, % high mannose by peptide mapping glycan profiling; format: cell-based; settings: single supplement of 0.1 g/L L-ornithine monohydrochloride on day 0 vs ornithine-free control; samples days 6, 8 and 12; FIG. 8
# Protocol: Glycan profiling was performed by peptide mapping. […] Specifically, about 50-70 μg of each antibody was denatured and reduced with 7.0 M guanidine.HCl, 6 mM dithiothreitol (DTT) in 0.2 M tris buffer (pH 7.5) at 37° C. for 30 minutes. Each denatured/reduced sample was alkylated with 14 mM iodoacetic acid at 25° C. for 25 minutes, followed by quenching the reaction by adding 8 mM DTT. […] The buffer-exchanged sample was incubated at 37° C. with 3.5 μg trypsin for 60 minutes. Digestion was quenched by adding 2.2 μL of 10% acetic acid. About 12-17 μg of digested antibody was injected for analysis.
# The digested antibody was analyzed using an Agilent 1260 HPLC system directly connected to a Thermo Scientific LTQ-Orbitrap Elite mass spectrometer (Thermo Fisher Scientific Inc., Rockford, Ill.). Proteolytic peptides were separated on a Waters BEH 300 C18 column (Waters Corporation, Milford, Mass.) 2.1×150 mm, 1.7μ particle at 40° C. with a flow rate of 0.2 mL/min. Mobile phase A was 0.02% TFA in water and mobile phase B was 0.018% TFA in acetonitrile. Peptides were eluted with a gradient of 0.5-40% B in 90 minutes, followed by column washing and re-equilibration. Mass spectrometer was set up for a full MS scan in the orbitrap with 120,000 resolution followed by five data-dependent CID MS/MS scans in the linear trap with dynamic exclusion.
# [2] = test system: Cell line H (CHO cells expressing recombinant antibody); assay: Small scale mock perfusion, % high mannose (HILIC glycan map) of the expressed recombinant glycoprotein; format: cell-based, Chinese hamster
# Protocol: Cell lines H was used in this study. Cells were maintained in 3 L Erlenmeyer shake flasks (Corning Life Sciences, Lowell, Mass.) with 1 L working volume and cultivated under standard humidified condition at 36° C., 5% CO2, and shaken at 70 rpm in an automatic CO2 incubator (Thermo Fisher Scientific, Waltham, Mass.). Cells were sub-cultured in a selective growth media containing a 500 nM concentration of methotrexate (MTX) every four days, and subsequently transferred, inoculated and cultured in a growth media for four days before being seeded in a 24 wells plate for the experiments described below. […] Different N-glycan species of antibodies were analyzed by hydrophilic-interaction liquid chromatography (HILIC). The purified antibodies were digested by N-glycosidase F (New England BioLabs, Ipswich, Mass.) at 37° C. for 2 hours to release the glycans. The released glycans were labeled with 2-aminobenzoic acid and cleaned up using GlycoClean S cartridges (Prozyme, […], Calif.). Purified glycans were then desalted and reconstituted in water for assay. HILIC chromatography was performed with a 100 mm×2.1 mm i.d BEH Glycan column using UPLC (Waters Corporation, Milford, Mass.) and the eluted glycans were detected, identified, and qualified by a fluorescence detector based on different elution times of different glycans.
# [3] = test system: Cell line H (CHO cells expressing recombinant antibody); settings: reduction/depletion of spermine in perfusion medium (0-100 μM)
# [4] = test system: Cell line H (CHO cells expressing recombinant antibody); settings: spermine tetrahydrochloride 0, 7, 17, 35 and 100 μM; day 5 samples; FIG. 6
# Protocol: Samples were collected on day 5 of the mock perfusion assay. The 35 μM sample served as a control.
# An arginine-free formulation of a perfusion media was used for small scale mock perfusion Experiment #3 (arginine concentration studies) according to the experimental design. In small scale mock perfusion Experiment #4 all arginase inhibitors were added to a perfusion media.
# Briefly, the CHO cells were seeded in the plate at the targeted density ranging from 10-20×10^6 cells/mL with 3 mL working volume for each well. The cells were cultivated at 36° C., 5% CO2, 85% relative humidity and shaken at 225 rpm in a 50-mm orbital diameter Kuhner incubator (Kuhner AG, Basel, Switzerland) for 3 or 4 days. Every 24 hours, the cells were centrifuged at 200×g for 5 minutes (Beckman Coulter, Brea, Calif.) to collect the spent media and each well was then replenished with 3 mL of fresh media. The collected spent media were analyzed for titer, key metabolites and % high mannose (% HMN) (when necessary). Cells were then harvested and cell counts and viability were measured.
# Five different concentrations of spermine were tested in this study. […] The perfusion medium containing 35 μM spermine acted as a control.
# [5] = first series: four arginase inhibitors at 1, 10 and 20 μM vs inhibitor-free control, FIG. 10
# [6] = second series: BEC 0, 10 μM, 0.5 mM, DL-α 0, 10 μM, 1.0 mM, 2.0 mM in perfusion medium, FIG. 11
compound,measurement,setting,value
"Cl.NCCC[C@H](N)C(=O)O [ornithine, L-ornithine monohydrochloride]",% HMN (high mannose glycoform content),[1],as the ornithine concentration is increased the % HMN increased
"Cl.NCCC[C@](N)(C(=O)O)C(F)F (racemic) [DL-α, DL-α, Diflouromethylornithine Hydrochloride]",% HM (high mannose glycoform content),[2]; [5],most effective in decreasing % HM
same,% HM (high mannose glycoform content),[2]; [6],% HM was decreased as both inhibitor concentrations increased
"Cl.Cl.Cl.Cl.NCCCNCCCCNCCCN [spermine, spermine tetrahydrochloride]",Titer,[3],not affected
same,% HMN (high mannose glycoform content),"[2]; spermine tetrahydrochloride 0, 7, 17, 35 (control) and 100 μM in perfusion medium, day 5 samples, FIG. 5","as the spermine concentration was reduced, the % HMN decreased"
same,amount of ornithine (extracellular),[4],the amount of ornithine decreased with a decrease in spermine concentration
S-(2-boronoethyl)-1-cysteine [BEC],% HM (high mannose glycoform content),[2]; [5],most effective in decreasing % HM
same,% HM (high mannose glycoform content),[2]; [6],% HM was decreased as both inhibitor concentrations increased
"Cl.N=C(N)NCCC[C@H](N)C(=O)O [arginine, arginine monohydrochloride]",% HM (high mannose glycoform content),"[2]; arginine 3.686, 1.843 (control), 1.38, 0.92 and 0.46 g/L in perfusion medium, FIG. 9",as the arginine concentration is increased the % HM increased
